Results on seven compounds are retold here after ChEMBL document CHEMBL1201862, “PubChem BioAssay data set” (2004).

Assay [1] addresses Protein disulfide-isomerase (Homo sapiens, UniProt P07237). Kind of assay: inhibition of PDI-driven insulin aggregation – biochemical, turbidity, absorbance, cherry-picked samples, dose response (AID 602350). The format is functional.
Assay [2] addresses Vascular endothelial growth factor receptor 2 (Homo sapiens, UniProt P35968). Type of assay: functional.
A further assay addresses Aurora kinase B (Homo sapiens, UniProt Q96GD4). The format is functional.
In the next assay the test system is CHO-K1. Kind of assay: Counterscreen for antagonists of the orexin 1 receptor (OX1R; HCRTR1): Homogeneous time resolved fluorescence (HTRF)-based cell-based dose response assay to identify antagonists of the parental CHO-K1 cell line. [Related pubchem assays (depositor defined):AID434989, AID435008, AID463079, AID485270, AID492963, AID492964, AID492965, AID493232, AID504699, AID504701]. The format is functional. Particulars: Cricetulus griseus. (In general: The purpose of a counterscreen is to sort out artefacts and off-target activity.);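 also: potency for inhibition of ATP-stimulated IP1 production as antagonists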

The nature of assay [3]: Counterscreen for antagonists of the orexin 1 receptor (OX1R; HCRTR1): Fluorescence-based cell-based high throughput dose response assay to identify antagonists of the parental CHO cell line. [Related pubchem assays (depositor defined):AID434989, AID435008, AID463079, AID485270, AID492963, AID492964, AID492965, AID493232, AID504699, AID504701]. The format is functional.
The target in assay [4] is T1, Orexin/Hypocretin receptor type 1 (Homo sapiens, UniProt O43613). Briefly: Homogeneous Time Resolved Fluorescence (HTRF)-based cell-based high throughput dose response assay for antagonists of the orexin 1 receptor (OX1R; HCRTR1). [Related pubchem assays (depositor defined):AID434989, AID435008, AID463079, AID485270, AID492963, AID492964, AID492965, AID493232, AID504717, AID504718]. The format is functional. For orientation: Time-resolved FRET reads energy transfer from a long-lived donor to a nearby acceptor.
T1 sequence (O43613 whole entry): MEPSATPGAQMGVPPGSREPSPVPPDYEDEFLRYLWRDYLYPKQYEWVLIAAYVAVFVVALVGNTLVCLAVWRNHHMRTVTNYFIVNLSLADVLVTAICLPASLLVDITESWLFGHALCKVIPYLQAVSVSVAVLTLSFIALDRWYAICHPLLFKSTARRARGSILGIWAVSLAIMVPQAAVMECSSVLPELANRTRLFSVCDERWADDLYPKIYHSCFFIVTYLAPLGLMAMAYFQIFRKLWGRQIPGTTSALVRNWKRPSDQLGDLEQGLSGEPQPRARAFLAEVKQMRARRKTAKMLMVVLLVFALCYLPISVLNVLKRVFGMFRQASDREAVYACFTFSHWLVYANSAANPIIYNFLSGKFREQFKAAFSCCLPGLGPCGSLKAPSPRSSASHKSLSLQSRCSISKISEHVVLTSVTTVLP

Assay [5] concerns the target T1, Orexin/Hypocretin receptor type 1. Kind of assay: Fluorescence-based cell-based high throughput dose response assay for antagonists of the orexin 1 receptor (OX1R; HCRTR1). [Related pubchem assays (depositor defined):AID434989, AID435008, AID463079, AID485270, AID492963, AID492964, AID492965, AID493232, AID504717, AID504718]. Type of assay: functional.
For assay [6], the target named is T2, Orexin receptor type 2 (Homo sapiens, UniProt O43614). Briefly: Counterscreen assay for antagonists of the orexin 1 receptor (OX1R; HCRTR1): Fluorescence-based cell-based dose response assay for antagonists of the orexin 2 receptor (OX2R; HCRTR2), run by assay provider. Type of assay: functional.
T2 sequence (O43614 whole entry): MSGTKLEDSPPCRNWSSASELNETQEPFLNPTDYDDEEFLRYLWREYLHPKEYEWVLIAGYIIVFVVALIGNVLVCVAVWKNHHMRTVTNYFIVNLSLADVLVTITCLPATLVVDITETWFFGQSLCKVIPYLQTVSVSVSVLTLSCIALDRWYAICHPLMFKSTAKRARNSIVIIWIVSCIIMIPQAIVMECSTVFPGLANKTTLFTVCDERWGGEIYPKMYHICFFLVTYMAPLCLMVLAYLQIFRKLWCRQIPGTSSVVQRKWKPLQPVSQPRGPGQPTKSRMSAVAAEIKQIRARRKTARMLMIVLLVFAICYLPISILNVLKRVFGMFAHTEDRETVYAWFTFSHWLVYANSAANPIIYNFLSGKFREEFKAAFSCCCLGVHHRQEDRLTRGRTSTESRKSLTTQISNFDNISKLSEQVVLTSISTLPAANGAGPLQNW
The target of assay [7] is T2, Orexin receptor type 2. Kind of assay: Counterscreen assay for antagonists of the orexin 1 receptor (OX1R; HCRTR1): Homogeneous Time Resolved Fluorescence (HTRF)-based cell-based dose response assay for antagonists of the orexin 2 receptor (OX2R; HCRTR2), run by assay provider. The format is functional.
Assay [8] in a line: luciferase reporter signal suppression in cells – H4 neuroglioma cells, luminescence, dose response (AID 1990). The format is functional, cell-based.
For assay [9], the system named is BJ. Kind of assay: BJ-TERT fibroblast viability loss – cell-based, RAS-independent, luminescence, dose response (AID 1933). Type of assay: functional. The settings on record: Homo sapiens.
Assay [10] can be described thus: Luminescence Cell-Based Dose Response HTS to Identify Inhibitors of 5'UTR Stem-Loop Driven Prion Protein mRNA Translation in H4 Neuroglioblastoma Cells. [Related pubchem assays: 1827 (Project Summary), 1813 (Primary HTS)]. Type of assay: functional.
A further assay deals with Vero. Briefly: mammalian cell viability reduction – secondary assay, cytotoxicity control for West Nile virus antiviral project, dose response (AID 1650). The format is functional. The settings on record: Chlorocebus sabaeus.
The nature of assay [11]: alpha-synuclein stem-loop luciferase translation blockers – H4 neuroglioma cells, luminescence, confirmation (AID 1988). Type of assay: functional, cell-based.
The subject of assay [12] is BJ. Kind of assay: cells. The format is functional, cell-based. The settings on record: Homo sapiens.
Assay [13] concerns the target Mothers against decapentaplegic homolog 3 (Homo sapiens, UniProt P84022). Kind of assay: inhibitors of SMAD-driven TGF-beta signaling – dose response (AID 715). Type of assay: functional.
Assay [14] concerns BJ. Kind of assay: BJ-TERT-LT-ST fibroblast viability loss – cell-based, RAS-independent, luminescence, dose response (AID 1935).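 Also: BJ fibroblasts immortalized with TERT plus LT and ST oncogenes.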 Particulars: Homo sapiens. The format is functional.
Assay [15] in a line: DRD fibroblast viability loss – cell-based, non-viral oncogenic, luminescence, dose response (AID 1934). The format is functional. Particulars: Homo sapiens.
The subject of another assay is HEK293. Kind of assay: EBV LMP1 TES2 canonical NF-kB signalling blockers – cell-based, HEK293, luciferase, cherry-pick, dose response (AID 588343). Particulars: Homo sapiens. Type of assay: functional.
The target of assay [16] is T3, Apoptotic protease-activating factor 1 (Homo sapiens, UniProt O14727).
T3 sequence (O14727 whole entry): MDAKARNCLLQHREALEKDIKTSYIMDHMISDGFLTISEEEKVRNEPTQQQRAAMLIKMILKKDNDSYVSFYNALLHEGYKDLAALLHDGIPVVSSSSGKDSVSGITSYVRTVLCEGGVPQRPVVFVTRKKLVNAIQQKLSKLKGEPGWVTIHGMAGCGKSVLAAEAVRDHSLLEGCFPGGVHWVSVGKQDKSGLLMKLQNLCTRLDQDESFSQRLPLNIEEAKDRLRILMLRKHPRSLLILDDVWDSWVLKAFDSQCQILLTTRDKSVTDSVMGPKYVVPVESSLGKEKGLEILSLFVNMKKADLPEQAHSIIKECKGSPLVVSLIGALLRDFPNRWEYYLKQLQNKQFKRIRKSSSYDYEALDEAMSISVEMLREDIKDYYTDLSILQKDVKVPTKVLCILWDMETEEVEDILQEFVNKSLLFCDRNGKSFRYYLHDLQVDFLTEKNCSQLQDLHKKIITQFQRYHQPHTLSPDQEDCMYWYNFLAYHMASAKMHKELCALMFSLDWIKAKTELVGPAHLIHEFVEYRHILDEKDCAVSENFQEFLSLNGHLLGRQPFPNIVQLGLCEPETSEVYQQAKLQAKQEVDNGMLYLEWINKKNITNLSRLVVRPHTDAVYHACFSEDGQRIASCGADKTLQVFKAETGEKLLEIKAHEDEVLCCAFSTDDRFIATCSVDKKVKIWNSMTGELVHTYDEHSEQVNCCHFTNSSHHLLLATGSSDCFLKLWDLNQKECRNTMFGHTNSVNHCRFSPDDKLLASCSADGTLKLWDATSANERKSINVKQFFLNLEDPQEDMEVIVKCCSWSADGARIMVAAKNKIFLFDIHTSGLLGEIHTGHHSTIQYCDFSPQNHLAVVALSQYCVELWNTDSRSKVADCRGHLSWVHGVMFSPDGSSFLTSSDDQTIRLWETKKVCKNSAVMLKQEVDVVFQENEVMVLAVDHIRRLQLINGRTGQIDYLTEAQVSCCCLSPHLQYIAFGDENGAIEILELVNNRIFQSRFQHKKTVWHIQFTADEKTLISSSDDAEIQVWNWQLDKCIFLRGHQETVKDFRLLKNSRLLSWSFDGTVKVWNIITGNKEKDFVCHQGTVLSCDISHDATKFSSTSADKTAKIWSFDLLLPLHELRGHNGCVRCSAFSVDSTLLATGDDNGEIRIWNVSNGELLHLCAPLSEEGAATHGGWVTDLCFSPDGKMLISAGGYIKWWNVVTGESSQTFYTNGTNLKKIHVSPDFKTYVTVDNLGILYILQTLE
The format is functional.

In assay [17] the target is Latent membrane protein 1 (Human herpesvirus 4 (strain B95-8), UniProt P03230). Briefly: LMP1 TES1 pathway selectivity over dsRED control – imaging, HEK293T, dual-color eGFP/dsRED, cherry-picks, selectivity assay for LMP1 NF-kB inhibitor project, dose response (AID 588398). The format is functional, cell-based.
Sequence of Latent membrane protein 1 (P03230 whole entry): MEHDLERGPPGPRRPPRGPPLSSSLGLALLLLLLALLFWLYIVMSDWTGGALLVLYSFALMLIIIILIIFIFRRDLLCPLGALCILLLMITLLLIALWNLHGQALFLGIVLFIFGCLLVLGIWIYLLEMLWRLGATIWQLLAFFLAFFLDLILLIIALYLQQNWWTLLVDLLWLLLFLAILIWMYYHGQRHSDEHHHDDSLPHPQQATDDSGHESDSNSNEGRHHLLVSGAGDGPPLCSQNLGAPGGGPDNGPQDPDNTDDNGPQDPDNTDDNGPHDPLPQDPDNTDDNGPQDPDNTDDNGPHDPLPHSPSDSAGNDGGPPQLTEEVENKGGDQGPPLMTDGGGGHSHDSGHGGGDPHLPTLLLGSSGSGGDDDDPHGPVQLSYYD
Assay [18] relates to BJ. Briefly: growth inhibition of engineered Ras-driven BJ cells – cell-based, alamar blue fluorescence, cherrypicked samples, dose response (AID 2631).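 Also: confirmatory dose-response assay in RAS-dependent BJ fibroblasts engineered with TERT, LT and ST, with cytotoxicity read by fluorescence.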 Type of assay: functional. Particulars: Homo sapiens. For orientation: The colour change of resazurin is a common sign of viable cells or microbes.
A short description of assay [19]: reduction of Shn3 3'UTR-driven luciferase in osteoblasts – cell-based, Clone20 osteoblasts, firefly luciferase, cherry-picked, dose response (AID 624132).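 Also: firefly luciferase luminescence from reporter carrying the Shn3 3'UTR in osteoblasts.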 The format is functional.
Assay [20] is described as follows: loss of viability in HepG2 cells – cell-based, CellTiter-Glo, cherry-picked, cytotoxicity control for Shn3 inhibitor project, dose response (AID 624134). Type of assay: functional.
Assay [21] is described as follows: non-specific 3'UTR reporter inhibition in Clone20-Shn3RL – cell-based, Renilla luciferase, cherry-picked, counter-screen for Shn3 inhibitor project, dose response (AID 624133). Type of assay: functional.
Assay [22] can be described thus: reduced cellular PGC1a acetyl-lysine signal – cell-based, cherry-picked samples, dose response (AID 720514).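 Also: potency may reflect raised or lowered acetylation signal.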 Type of assay: functional.
The target of assay [23] is Sphingosine 1-phosphate receptor 1 (Homo sapiens, UniProt P21453). Kind of assay: Late-stage fluorescence-based dose-response cell-based counterscreen assay to identify agonists of the Sphingosine 1-Phosphate Receptor 4 (S1P4): Sphingosine 1-Phosphate Receptor 1 (S1P1) agonist assay Set 2. Type of assay: functional.
Sequence of Sphingosine 1-phosphate receptor 1 (P21453 whole entry): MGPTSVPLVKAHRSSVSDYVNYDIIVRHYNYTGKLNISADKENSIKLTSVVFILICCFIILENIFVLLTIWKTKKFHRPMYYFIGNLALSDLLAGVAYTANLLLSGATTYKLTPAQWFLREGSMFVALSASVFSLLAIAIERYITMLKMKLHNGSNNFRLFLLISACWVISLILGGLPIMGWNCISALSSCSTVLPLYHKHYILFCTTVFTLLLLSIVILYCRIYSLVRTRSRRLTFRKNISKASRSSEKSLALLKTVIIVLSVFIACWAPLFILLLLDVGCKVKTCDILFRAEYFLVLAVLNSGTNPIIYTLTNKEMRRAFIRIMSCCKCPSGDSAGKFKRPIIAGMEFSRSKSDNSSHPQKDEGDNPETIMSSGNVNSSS
Assay [24] has as its target Sphingosine 1-phosphate receptor 5 (Homo sapiens, UniProt Q9H228). Kind of assay: activation of human S1P5 receptor – cell-based, fluorescence, set 2, counter-screen for S1P4 agonist project, late-stage follow-up (AID 504867). Type of assay: functional.
For assay [25], the target named is Sphingosine 1-phosphate receptor 3 (Homo sapiens, UniProt Q99500). Briefly: Late-stage fluorescence-based dose-response cell-based counterscreen assay to identify agonists of the Sphingosine 1-Phosphate Receptor 4 (S1P4): Sphingosine 1-Phosphate Receptor 3 (S1P3) agonist assay Set 2. Type of assay: functional.
Sequence of Sphingosine 1-phosphate receptor 3 (Q99500 whole entry): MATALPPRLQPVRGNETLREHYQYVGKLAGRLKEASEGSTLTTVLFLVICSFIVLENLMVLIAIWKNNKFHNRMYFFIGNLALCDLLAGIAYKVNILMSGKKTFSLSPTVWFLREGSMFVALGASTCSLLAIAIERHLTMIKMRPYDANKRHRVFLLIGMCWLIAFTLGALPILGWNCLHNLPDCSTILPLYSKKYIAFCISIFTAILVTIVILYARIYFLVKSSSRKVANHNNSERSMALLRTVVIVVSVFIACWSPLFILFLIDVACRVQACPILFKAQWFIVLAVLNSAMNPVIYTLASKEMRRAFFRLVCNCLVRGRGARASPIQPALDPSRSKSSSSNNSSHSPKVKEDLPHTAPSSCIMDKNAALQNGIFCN
For assay [26], the target named is Sphingosine 1-phosphate receptor 2 (Homo sapiens, UniProt O95136). Kind of assay: activation of human S1P2 receptor – cell-based, fluorescence, set 2, counter-screen for S1P4 agonist project, late-stage follow-up (AID 504873). Type of assay: functional.
Sequence of Sphingosine 1-phosphate receptor 2 (O95136 whole entry): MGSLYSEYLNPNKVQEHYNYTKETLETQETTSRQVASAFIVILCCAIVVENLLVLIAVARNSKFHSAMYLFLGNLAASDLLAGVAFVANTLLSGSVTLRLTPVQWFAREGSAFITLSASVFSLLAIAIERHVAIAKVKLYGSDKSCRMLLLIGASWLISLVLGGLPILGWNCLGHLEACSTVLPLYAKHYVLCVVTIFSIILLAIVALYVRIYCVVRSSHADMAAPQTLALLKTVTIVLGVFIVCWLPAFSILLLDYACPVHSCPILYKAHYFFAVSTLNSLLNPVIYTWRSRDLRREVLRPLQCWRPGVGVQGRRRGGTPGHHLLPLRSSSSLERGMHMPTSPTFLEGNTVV
A short description of assay [27]: Mcl1-dependent cancer cell viability – HMC-1-8 cells, luminescence, dry powder, selectivity assay for A1 inhibitor project, dose response (AID 504415). Type of assay: functional, cell-based. The settings on record: Homo sapiens.
The nature of assay [28]: A cell-based HTS for delayed death inhibitors of the malarial parasite plastid Measured in Microorganism System Using Plate Reader - 2126-02_Inhibitor_Dose_DryPowder_Activity. Type of assay: functional, organism-based.
Assay [29] in a line: A cell-based HTS for delayed death inhibitors of the malarial parasite plastid Measured in Microorganism System Using Plate Reader - 2126-01_Inhibitor_Dose_DryPowder_Activity. The format is functional, organism-based.

Broadly, the AC50 is the concentration giving half of the maximal activity seen. The term Ki denotes the equilibrium dissociation constant of an inhibitor or competing ligand from its target. By IC50 is commonly meant the concentration that inhibits the measured activity by half. By EC50 is commonly meant the concentration at which the effect is half-maximal. The term CC50 denotes the concentration that lowers cell viability or growth by half.

The structures appear in SMILES notation. Active and inactive are the calls of the source. Bounds are passed on as bounds.

Sequence of Aurora kinase B (Q96GD4 whole entry): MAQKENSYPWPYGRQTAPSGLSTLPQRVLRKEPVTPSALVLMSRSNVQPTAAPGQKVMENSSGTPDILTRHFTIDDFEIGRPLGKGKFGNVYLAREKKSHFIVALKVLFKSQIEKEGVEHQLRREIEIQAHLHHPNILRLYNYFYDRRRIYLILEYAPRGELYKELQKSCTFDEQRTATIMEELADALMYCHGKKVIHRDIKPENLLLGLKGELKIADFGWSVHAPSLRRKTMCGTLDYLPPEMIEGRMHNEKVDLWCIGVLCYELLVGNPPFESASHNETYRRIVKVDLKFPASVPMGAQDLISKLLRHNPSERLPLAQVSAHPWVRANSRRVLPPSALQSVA
Sequence of Protein disulfide-isomerase (P07237 whole entry): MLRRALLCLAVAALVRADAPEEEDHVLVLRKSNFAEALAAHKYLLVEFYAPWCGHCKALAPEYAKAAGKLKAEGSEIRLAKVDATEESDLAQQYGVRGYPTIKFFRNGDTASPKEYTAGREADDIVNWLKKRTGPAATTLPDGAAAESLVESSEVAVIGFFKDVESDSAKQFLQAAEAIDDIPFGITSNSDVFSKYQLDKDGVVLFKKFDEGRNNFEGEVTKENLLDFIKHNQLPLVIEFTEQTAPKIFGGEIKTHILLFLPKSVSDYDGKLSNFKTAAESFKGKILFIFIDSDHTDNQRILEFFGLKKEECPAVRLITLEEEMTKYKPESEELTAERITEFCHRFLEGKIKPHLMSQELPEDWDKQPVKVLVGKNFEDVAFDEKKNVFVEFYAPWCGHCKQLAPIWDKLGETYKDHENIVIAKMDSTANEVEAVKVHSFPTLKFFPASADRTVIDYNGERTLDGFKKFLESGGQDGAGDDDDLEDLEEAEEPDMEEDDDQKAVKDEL
Sequence of Vascular endothelial growth factor receptor 2 (P35968 whole entry): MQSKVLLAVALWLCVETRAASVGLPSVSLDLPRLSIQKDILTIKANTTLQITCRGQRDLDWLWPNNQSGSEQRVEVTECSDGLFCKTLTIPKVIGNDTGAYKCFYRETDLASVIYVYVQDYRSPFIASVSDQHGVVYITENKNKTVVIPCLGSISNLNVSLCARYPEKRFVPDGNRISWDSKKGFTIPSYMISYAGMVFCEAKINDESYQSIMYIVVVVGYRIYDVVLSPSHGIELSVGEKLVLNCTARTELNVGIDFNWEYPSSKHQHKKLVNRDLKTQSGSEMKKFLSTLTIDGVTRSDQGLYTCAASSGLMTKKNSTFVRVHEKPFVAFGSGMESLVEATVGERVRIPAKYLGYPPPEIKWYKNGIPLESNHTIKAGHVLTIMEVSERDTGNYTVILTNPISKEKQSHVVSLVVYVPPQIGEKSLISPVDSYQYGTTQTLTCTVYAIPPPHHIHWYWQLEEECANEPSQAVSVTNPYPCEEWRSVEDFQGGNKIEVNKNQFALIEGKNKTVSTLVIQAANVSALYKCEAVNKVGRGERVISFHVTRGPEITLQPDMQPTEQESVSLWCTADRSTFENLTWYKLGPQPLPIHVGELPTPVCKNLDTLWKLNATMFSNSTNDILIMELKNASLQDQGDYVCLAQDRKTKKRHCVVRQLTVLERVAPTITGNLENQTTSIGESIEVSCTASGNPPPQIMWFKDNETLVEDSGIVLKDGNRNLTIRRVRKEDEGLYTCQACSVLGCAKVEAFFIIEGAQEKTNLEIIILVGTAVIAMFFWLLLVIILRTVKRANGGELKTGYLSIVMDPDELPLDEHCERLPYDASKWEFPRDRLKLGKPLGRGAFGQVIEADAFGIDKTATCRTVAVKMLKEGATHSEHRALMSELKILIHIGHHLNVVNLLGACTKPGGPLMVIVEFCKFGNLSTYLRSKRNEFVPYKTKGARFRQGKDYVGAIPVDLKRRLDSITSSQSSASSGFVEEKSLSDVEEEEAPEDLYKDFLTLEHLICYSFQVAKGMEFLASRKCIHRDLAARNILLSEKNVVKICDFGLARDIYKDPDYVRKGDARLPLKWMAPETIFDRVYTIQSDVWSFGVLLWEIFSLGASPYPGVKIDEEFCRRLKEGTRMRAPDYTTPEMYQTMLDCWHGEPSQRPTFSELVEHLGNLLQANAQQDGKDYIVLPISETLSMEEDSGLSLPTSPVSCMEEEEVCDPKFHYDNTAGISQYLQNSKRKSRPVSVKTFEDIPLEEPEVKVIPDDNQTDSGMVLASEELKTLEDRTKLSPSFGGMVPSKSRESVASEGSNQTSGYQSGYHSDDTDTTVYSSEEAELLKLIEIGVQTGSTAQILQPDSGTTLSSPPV
Sequence of Sphingosine 1-phosphate receptor 5 (Q9H228 whole entry): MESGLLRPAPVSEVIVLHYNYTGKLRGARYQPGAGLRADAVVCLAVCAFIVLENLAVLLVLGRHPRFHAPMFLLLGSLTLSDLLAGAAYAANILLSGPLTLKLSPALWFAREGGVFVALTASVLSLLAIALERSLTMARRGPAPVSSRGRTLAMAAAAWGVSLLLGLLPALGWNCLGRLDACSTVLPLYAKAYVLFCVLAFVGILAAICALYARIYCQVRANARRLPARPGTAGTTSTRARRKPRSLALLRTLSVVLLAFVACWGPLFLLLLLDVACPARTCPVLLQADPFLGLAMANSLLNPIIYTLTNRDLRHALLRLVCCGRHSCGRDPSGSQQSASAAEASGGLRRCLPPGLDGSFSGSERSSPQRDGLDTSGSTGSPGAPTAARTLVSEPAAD

For the compound `Cc1noc(C)c1S(=O)(=O)Nc1ccc2c(c1)CC(=O)N([C@@H](C)CO)C[C@H](C)[C@H](CN(C)S(=O)(=O)c1ccc(F)cc1)O2`, the half-maximal activity concentration (AC50) in assay [1] was 19.5 µM (active).
As to `COc1cc(Nc2ncnc(Nc3cc[nH]n3)n2)cc(OC)c1OC`, the Ki in [2] was 3.98 µM (active); at Aurora kinase B, 0.316 µM (active).
Turning to `CC(=O)Nc1cccc(OCC(=O)NC(C)c2ccc3ccccc3c2)c1` (stereo not drawn), the IC50 with CHO-K1 was > 66.2 µM (inactive); in [3] it was > 49.7 µM (inactive); in [4], 0.623 µM (active); in assay [5], 9.01 µM (active); at Orexin receptor type 2 [6], 30 µM (inactive); at Orexin receptor type 2 [7], > 50 µM (inactive).
Turning to `CCOC(=O)c1c2c(n(C)c1C)C(=O)C(=O)c1ccc(Br)cc1-2`, the EC50 is 6.23 µM (active) in assay [8]; 4.88 µM (active) in the assay with BJ [9]; 8.25 µM (active) in [10]; 3.58 µM (active) in assay [11]; 8.06 µM (inconclusive) in the assay on BJ [12]; 5.56 µM (inconclusive) in the assay on BJ [14]. Besides, the figures for the EC50 (in assay [15]; in the assay on BJ [18]) were 5.41 µM (active) and 0.52 µM (active), respectively. In addition, the 50% cytotoxic concentration (CC50) with Vero is 6.53 µM (active). Moreover, the IC50 in assay [13] is 10.4 µM (active); in [16], 0.797 µM (active). For the same compound, the AC50 with HEK293 was 2.51 µM (active); in assay [17], 41.1 µM (active); in [19] it was 1.01 µM (active); in assay [20], 3.95 µM (active); in [21] it was 1.6 µM (active); in assay [22], 4.34 µM (active).
On to `C/N=C1/S/C(=C/c2cc(C)n(Cc3ccccc3)c2C)C(=O)N1C`, for which the EC50 in [23] was 0.72 µM (active); in [24] it was 0.144 µM (active); in assay [25], > 25 µM (inactive); in [26], 3.65 µM (active).
As for `O=c1oc2ccccc2c(Nc2cc(Cl)cc(Cl)c2)c1[N+](=O)[O-]`, in [27], the concentration at half-maximal activity (AC50) is 31.2 µM (active).
On to `C[C@@H]1CN([C@@H](C)CO)C(=O)c2cc(NC(=O)Nc3ccccc3)ccc2O[C@@H](C)CCCCO[C@H]1CN(C)S(=O)(=O)c1ccccc1F`, for which the AC50 was 0.641 µM (active) in assay [28] and 0.924 µM (active) in assay [29].
